Reference: article PMC3275754, “Pregnenolone sulphate-independent inhibition of TRPM3 channels by progesterone” (Cell Calcium, 2012)

Tests used:
Format in all cases: cell-based
[1] = molecular target: T1, Transient Receptor Potential Melastatin 3 (TRPM3) (Homo sapiens, UniProt Q9HCF6); assay: Ca2+ measurement and whole-cell patch-clamp inhibition; steroid overlay binding of TRPM3-YFP lysate; design: human TRPM3 expressed in HEK 293 cells; TRPM3-YFP for overlay
[2] = molecular target: T1, Transient Receptor Potential Melastatin 3 (TRPM3); assay: Overlay binding assay with lysate of HEK […] cells expressing TRPM3-YFP; design: human TRPM3 tagged with YFP
[3] = molecular target: T1, Transient Receptor Potential Melastatin 3 (TRPM3); assay: Ca2+ measurement; […] inhibits PregS-evoked but not nifedipine-evoked TRPM3 activity; design: human TRPM3 expressed in HEK 293 cells

T1 sequence (Q9HCF6 whole entry): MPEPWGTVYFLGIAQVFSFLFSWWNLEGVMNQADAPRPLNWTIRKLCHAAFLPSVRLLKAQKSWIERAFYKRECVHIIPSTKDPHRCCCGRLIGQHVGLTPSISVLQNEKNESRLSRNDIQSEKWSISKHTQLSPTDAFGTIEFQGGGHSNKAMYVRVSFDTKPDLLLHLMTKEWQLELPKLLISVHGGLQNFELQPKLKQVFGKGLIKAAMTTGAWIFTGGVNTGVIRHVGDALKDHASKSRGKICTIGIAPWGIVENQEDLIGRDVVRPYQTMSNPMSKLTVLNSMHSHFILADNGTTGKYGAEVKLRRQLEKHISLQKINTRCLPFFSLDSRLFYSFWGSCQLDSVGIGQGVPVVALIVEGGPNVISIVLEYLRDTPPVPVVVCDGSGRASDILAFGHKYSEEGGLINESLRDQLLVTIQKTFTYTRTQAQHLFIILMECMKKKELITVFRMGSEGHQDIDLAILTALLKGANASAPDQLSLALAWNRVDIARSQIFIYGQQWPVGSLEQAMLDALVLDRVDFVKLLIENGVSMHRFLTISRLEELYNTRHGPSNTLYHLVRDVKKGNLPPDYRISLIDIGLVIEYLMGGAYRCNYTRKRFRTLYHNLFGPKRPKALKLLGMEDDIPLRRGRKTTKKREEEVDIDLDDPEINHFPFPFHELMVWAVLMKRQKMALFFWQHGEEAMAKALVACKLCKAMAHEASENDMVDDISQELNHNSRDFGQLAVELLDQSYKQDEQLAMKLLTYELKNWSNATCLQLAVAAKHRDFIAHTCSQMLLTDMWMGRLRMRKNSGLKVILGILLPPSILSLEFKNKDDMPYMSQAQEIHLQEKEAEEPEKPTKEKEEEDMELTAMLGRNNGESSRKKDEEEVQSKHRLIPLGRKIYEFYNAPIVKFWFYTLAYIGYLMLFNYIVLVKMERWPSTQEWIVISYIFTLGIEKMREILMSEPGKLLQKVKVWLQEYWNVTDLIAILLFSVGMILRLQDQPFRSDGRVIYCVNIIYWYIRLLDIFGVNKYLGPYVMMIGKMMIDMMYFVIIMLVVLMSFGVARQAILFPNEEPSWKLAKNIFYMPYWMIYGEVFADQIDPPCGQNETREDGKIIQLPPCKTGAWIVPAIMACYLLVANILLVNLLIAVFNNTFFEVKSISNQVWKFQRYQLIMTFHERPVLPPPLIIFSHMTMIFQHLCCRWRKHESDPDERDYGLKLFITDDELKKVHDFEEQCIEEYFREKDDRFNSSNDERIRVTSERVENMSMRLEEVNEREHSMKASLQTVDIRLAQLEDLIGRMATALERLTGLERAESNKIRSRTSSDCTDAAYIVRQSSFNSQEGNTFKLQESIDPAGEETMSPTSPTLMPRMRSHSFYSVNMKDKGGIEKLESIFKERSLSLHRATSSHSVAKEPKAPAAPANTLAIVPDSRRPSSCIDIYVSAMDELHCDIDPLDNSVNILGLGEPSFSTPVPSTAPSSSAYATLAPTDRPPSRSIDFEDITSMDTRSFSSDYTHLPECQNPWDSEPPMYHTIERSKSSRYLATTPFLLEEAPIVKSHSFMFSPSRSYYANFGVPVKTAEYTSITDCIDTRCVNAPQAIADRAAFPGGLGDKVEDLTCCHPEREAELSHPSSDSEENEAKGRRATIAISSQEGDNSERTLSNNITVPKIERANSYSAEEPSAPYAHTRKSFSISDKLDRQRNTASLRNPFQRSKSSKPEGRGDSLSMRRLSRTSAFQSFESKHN

CC(=O)[C@H]1CC[C@H]2[C@@H]3CCC4=CC(=O)CC[C@]4(C)[C@H]3CC[C@]12C [prog, progesterone]
Ca2+ measurement and whole-cell patch-clamp inhibition; steroid overlay binding [1]: TRPM3 bound to pregnenolone sulphate, progesterone, nifedipine, dihydrotestosterone and cholesterol

CC(C)CCC[C@@H](C)[C@H]1CC[C@H]2[C@@H]3CC=C4C[C@@H](O)CC[C@]4(C)[C@H]3CC[C@]12C [cholesterol]
Overlay binding assay with lysate of HEK 293 cells expressing TRPM3-YFP [2]: TRPM3 bound to pregnenolone sulphate, progesterone, nifedipine, dihydrotestosterone and cholesterol

CS(=O)(=O)c1ccc(C(=O)Nc2ccc(N3CCCC3)cc2)c(Cl)c1 [2-CMNPBC, 2-chloro-4-(methylsulphonyl)-N-[4-(1 pyrrolidinyl)phenyl]benzenecarboxamide]
Ca2+ measurement; 10 μM inhibits PregS-evoked but not nifedipine-evoked TRPM3 ac [3]: (2-CMNPBC, Fig. 9a), which also inhibited pregnenolone sulphate-evoked TRPM3 activity
